How the values were obtained:
Mel1a (MT1R) = Mel1a (MT1R) (Homo sapiens, UniProt P48039); test: Affinity (Ki) for melatonin receptor MT1R; format: binding
Mel1b (MT2R) = target: T1, Mel1b (MT2R) (Homo sapiens, UniProt P49286); test: Affinity (Ki) for melatonin receptor MT2R; format: binding
T1 sequence (P49286 1-362): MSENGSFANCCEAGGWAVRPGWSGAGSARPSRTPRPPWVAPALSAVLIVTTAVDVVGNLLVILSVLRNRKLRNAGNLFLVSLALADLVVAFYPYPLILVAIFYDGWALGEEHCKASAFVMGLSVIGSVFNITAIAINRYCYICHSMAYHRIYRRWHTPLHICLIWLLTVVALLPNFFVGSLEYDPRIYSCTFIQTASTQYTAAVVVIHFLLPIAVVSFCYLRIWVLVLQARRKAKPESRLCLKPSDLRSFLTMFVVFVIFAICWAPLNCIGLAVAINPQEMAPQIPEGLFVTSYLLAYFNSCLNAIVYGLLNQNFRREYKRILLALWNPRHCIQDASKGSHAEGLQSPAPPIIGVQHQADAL

[1] = Solubility of tasimelteon in solvents and water; format: physicochemical
sleep parameters = conditions: cited from earlier work
[2] = Metabolite formation following oral administration of tasimelteon; format: in vivo; conditions: humans

Mel1a (MT1R), sequence (P48039 whole entry): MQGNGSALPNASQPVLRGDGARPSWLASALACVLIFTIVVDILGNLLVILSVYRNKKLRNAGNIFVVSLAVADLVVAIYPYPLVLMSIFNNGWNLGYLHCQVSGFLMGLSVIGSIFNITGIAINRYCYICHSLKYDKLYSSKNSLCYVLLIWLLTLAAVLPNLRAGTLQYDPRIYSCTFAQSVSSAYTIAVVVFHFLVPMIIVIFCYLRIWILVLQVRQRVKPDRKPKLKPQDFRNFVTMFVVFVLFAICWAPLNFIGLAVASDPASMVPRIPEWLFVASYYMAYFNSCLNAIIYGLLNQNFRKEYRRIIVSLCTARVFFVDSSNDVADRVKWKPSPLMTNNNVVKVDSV

| Ki (Mel1a (MT1R)) | Ki (Mel1b (MT2R)) | greater affinity for MT2R relative to MT1R (Mel1b (MT2R); MT2R relative to MT1R) | solubility in organic solvents ([1]; 95% ethanol, methanol, acetonitrile, ethyl acetate, isopropanol, polyethylene glycols (PEG-300 and PEG-400)) | effect of pH on aqueous solubility ([1]; aqueous) | native pH of a saturated solution in water ([1]; saturated solution in water) | solubility in water ([1]; water) | formation as metabolite [2] | SMILES | effect on sleep parameters (sleep parameters; prior clinical studies, simulated desynchronization of the circadian clock) | tolerability profile (sleep parameters; studied in hundreds of individuals) |
| --- | --- | --- | --- | --- | --- | --- | --- | --- | --- | --- |
| 0.3 to 0.4 nM | 0.1 to 0.2 nM | 2-4 times | very soluble or freely soluble | practically unaffected by pH | 8.5 | only slightly soluble | – | CCC(=O)NC[C@@H]1C[C@H]1c1cccc2c1CCO2 (relative stereo) [Tasimelteon, trans-N-[[2-(2,3-dihydrobenzofuran-4-yl)cycloprop-1yl]methyl]propanamide] | shown to improve sleep parameters | good tolerability profile |
| – | – | – | – | – | – | – | formed in humans | CCC(=O)NC[C@@H]1C[C@H]1c1cccc(O)c1CC(=O)O [M9] | – | – |
| – | – | – | – | – | – | – | formed in humans | CCC(=O)NC[C@@H]1C[C@H]1c1cccc(O)c1CCO [M11] | – | – |

Source: patent US11266622B2, “Method of treatment” (Vanda Pharmaceuticals Inc., priority 2014, dated 2022)
